Results on 1 substance are retold here after patent publication EP2982682A1, “CHIMERIC PEPTIDE AND PHARMACEUTICAL COMPOSITION FOR TREATING ONCOLOGICAL DISEASES” (Obshestvo S Ogranichennoj Otvetstvennost`yu "Metamax", priority 2013, dated 2014).

One series has as its system Bcl-2 in HCT-116 cells. In words: Level of Bcl-2 in cells, antibody staining and flow cytometry. Format: cell-based, human. Particulars: 24 hours. Here is the method:
Example 4. Investigation of the peptide sequences effect on change in the level of Bcl-2 Monoclonal antibodies Anti Human Bcl-2 (Caltag Laboratories, USA) were used to estimated change in the level of Bcl-2 in HCT-116 cells when incubated with the study peptide sequence. The cells were transferred to a 24-well plate at 1 x 10^4 per well, grown for 48 hours under normal conditions (medium DMEM, 10%), then synchronized using the depleted medium containing 0.5% PBS for 48 hours. Upon removing the synchronizing block the medium containing 10% PBS was added to the cells, and the peptide sequences were studied at concentrations of 10 and 40 µM. Incubation with the peptides was performed for 24 hours, then the culture was removed with the help of trypsin, fixed for one hour with PBS containing 1% formaldehyde, and then fixed with ethanol. The staining and the analysis were performed according to the antibodies manufacturer's instructions. […] It is thereby shown that the apoptosis induced by introduction of the peptide sequences into the culture medium is explained by influence of the peptides on specific molecular processes of the cell.
In general terms: In flow cytometry, cells or beads pass a laser one at a time.

The test system of a further series is pRb in SKOV cell line. In words: Level of underphosphorylated pRb by flow cytometry. The series is classed as cell-based. Particulars: 10 and 40 µM. Here is the method: (§1) Flow cytometry allows to render the cells, where the pRb product is in the "underphosphorylated" state. The fluorescently labeled antibodies interact with "underphosphorylated" pRb.
In the study of the "underphosphorylated" pRb level using SKOV cell line, the delay effect in formation of "underphosphorylated" pRb was lower than for cultures MCF-7 and HCT-116, although this cell line was previously shown to have the proliferation delay effect during incubation of the cells with the study peptide sequences. […] Obvious "underphosphorylated" pRb formation delay effect compared to the control sample, however, in the case of SKOV cell line, was somewhat lower than that of cultures of MCF-7 and HCT-116.

The test system of series [1] is HCT116 (colon adenocarcinoma). Put plainly: Cytotoxic activity on proliferating cell lines, Annexin V/PI flow cytometry. Particulars: 5-40 µM, 24 hours. Format: cell-based, human. Here is the method: (§2) We studied the effect of peptide sequences D37K, F26K-1, F26K-2, W26K-1, W26K-2 on the cells of transplanted cell cultures MCF-7 (breast cancer), A549 (lung adenocarcinoma), SKOV (ovarian cancer) and HCT116 (colon adenocarcinoma).
(§3) When preparing for the experiment the cells cultures were placed in 24-well plates in amount of 1 * 10^4 cells per well, incubated for 48 hours at 37°C and 5% CO2, medium DMEM (PanEco, Russia), containing glutamine, gentamicin, 10% PBS. After such incubation the cell cultures formed loose mono-layer. Experimental set-up: culture medium was replaced with the medium containing the study peptides in the concentrations of 5 µM, 10 µM, 20 µM, 40 µM; in the control samples the medium contained DMSO 20 µL to determine the effect of solvent (peptides were dissolved in DMSO). Incubation time was 24 hours. Then the cells were carefully removed from the matrix using trypsin (cells in the wells with peptides were attached stronger than the control sample), the medium was removed via centrifugation at 3,000 rounds for 7 minutes, supernatant fluid was removed and the staining was performed using double mark Annexin V/PI. Analysis was performed using flow cytometer and evaluated the number of cells including Annexin V - apoptosis, the number of cells including propidium iodide - dead cells, the number of intact cells - live cells.

For series [2], the system named is MCF-7 (breast cancer). Described as above. The series is classed as cell-based. To be noted: 5-40 µM, 24 hours. The method, then:
as §2, §3

For a further series, the system named is pRb in MCF-7. Put plainly: Level of underphosphorylated pRb by flow cytometry. Particulars: 10 and 40 µM. Format: cell-based.
Description: (§4) Although the literature describes the retention of such peptides properties to inhibit a phosphorylating function for cyclin-dependent kinases, this was confirmed in cell extracts. We monitored changes in the level of pRB phosphorylation - molecular target of type D cyclin kinase against the background of the investigated peptides, including the sequences, having homology with p16INK4a, at the cellular level with the help of flow cytometry method.
as §1
(§5) To determine the amount of "underphosphorylated" pRb, a series of experiments was performed, where the study peptide sequences were added to the cell cultures, synchronized with the help of depleted cell culture medium method (MCF-7, HCT-116), after removing the synchronization block, then the cells were sampled every two hours. A part of the cells from each plate was fixed to further define the phases of the cell cycle, and to determine the amount of the "underphosphorylated" pRb. Also a negative control was set in the form of synchronized cells samples, but without added peptide. It was shown that introduction of the peptide sequences into the cell culture inhibits the pRb phosphorylation and reduces its maximum level in the culture (Figure 19).

A further series relates to MCF-7. In words: Cytostatic effect: cell cycle phases on DNA-histograms after synchronization in G0/G1. Format: cell-based. Particulars: 10 and 40 µM. Here is the method:
(§6) Using cell lines MCF-7, HCT-116, A549 (lung adenocarcinoma) and SKOV (ovarian cancer) we studied the effect of the peptide sequences on the cells proliferative activity. The experiments involved synchronization of the cells in G0/G1-phase of the cells cycle using depleted culture medium. The cells in 24-well plate were held for 48 hours in the medium containing 0.5% PBS, then the synchronization block was removed via replacement of the medium with one containing 5% PBS and the study peptides in different concentrations. It was incubated for 24 hours, and then the cells were removed from the matrix using trypsin, washed in PSB, fixed in ethanol. Staining of samples, washing from ethanol in PBS using centrifugation, incubation with RNA-ase, staining with propidium iodide. Analysis was performed using flow cytometry, we evaluated the distribution of cells in the cell cycle phases on DNA-histograms using ModFit 3.0 software. For cells cultures MCF-7 and HCT-116 we studied the effect of 5 peptide sequences in concentrations of 10 and 40 µM. It was shown that the study sequences are able to decrease the proliferating activity of the dividing cells (Figure 9).

The subject of another series is pRb in HCT-116. In words: Level of underphosphorylated pRb by flow cytometry. Format: cell-based, human.
Description: as §4, §1, §5
As it is seen in Figure 19, the level of "underphosphorylated" pRb begins to grow after removal of the synchronization block in the control samples without addition of the peptide, and to a certain point (4 or 6 hours of incubation), depending on the cell line, it reaches a maximum and then begins to decline. In the samples with peptides the level of "underphosphorylated" pRb begins to increase later and reaches its maximum after 12-18 hours of incubation, the delay in reaching the maximum level of pRb depends on concentration of the peptide sequences. […] We analyzed the level of "underphosphorylated" pRb every two hours; the maximum incubation time was 24 hours.

Series [3] has as its system MCF-7 (breast cancer). In words: Combined effect with Taxol or 5-fluorouracil, Annexin and propidium iodide flow cytometry. Format: cell-based. Particulars: 10, 20, 30 µM, 24 hours. Here is the method: In cell culture MCF-7 (breast cancer) there was investigated the combined effect of DA, 5-fluorouracil and Taxol, and the sequences D37K and F26K-2 (in the cytotoxicity studies the sequence had the most pronounced effect on the MCF-7 culture). The cells were grown in 24-well plates to 70% of the monolayer, followed by replacement of the medium with the medium containing the target sequence and drugs in concentrations of 10, 20 and 30 µM. The incubation time was 24 hours. Analyzed cells, which entered into apoptosis, were detected using Annexin and propidium iodide staining, flow cytometry.

Another series relates to HCT-116. Put plainly: Cytostatic effect: cell cycle phases on DNA-histograms after synchronization in G0/G1. Format: cell-based, human. The method, then:
as §6

In another series the test system is SKOV (ovarian cancer). Put plainly: Cytostatic effect: cell cycle phases and hypodiploid peak on DNA-histograms after synchronization. To be noted: 5-40 µM, 24 hours. Format: cell-based. Here is the method:
as §6
When studying the effect of the peptide sequences on SKOV cells culture the incubation was performed with the sequences F26K-1, F26K-2, W26K-1, and W26K-2. […]

Square brackets hold non-standard residues; d marks the D form. Ends that are not written are not given here. Ahx = NCCCCCC(=O)O

In the case of H-FLDAILLI[Ahx] [F26K-2], the “inhibition of the expression of Bcl-2 protein” value in the series on Bcl-2 in HCT-116 cells (10 and 40 µM) is given as “strongest inhibition”. Further, the “decrease of the level of Bcl-2-positive cells” value in the series on Bcl-2 in HCT-116 cells (40 µM) was “over 15%”. Besides, the “delay in formation of "underphosphorylated" pRb as compared to the control” value in the series on pRb in SKOV cell line is on record as 4-10 hours. Further, the “apoptosis level (Annexin V)” value (in series [1]; in the series with MCF-7 (breast cancer) [2]) was “more pronounced pro-apoptosis effect” throughout. For the same substance, the “delay in the formation of "underphosphorylated" pRb” value with pRb in MCF-7 was “greatest delay”. Besides, the antiproliferative effect entry with MCF-7 is recorded as “most clear antiproliferative effect”; in the series on HCT-116 (10 and 40 µM), “most clear antiproliferative effect”. The “delay in formation of "underphosphorylated" pRb” value in the series on pRb in HCT-116 (10 and 40 µM) is “greatest effect of the delay”. Further, the entries for the “incubation time of maximum level of "underphosphorylated" pRb” value in the series on pRb in HCT-116 (peptide 10 µM) and with pRb in HCT-116 (peptide 40 µM) were 16 hours and 20 hours, respectively. Further, in the series on MCF-7 (breast cancer) [3], the “combined use with 5-fluorouracil, cytotoxic effect” value is given as “linear amplification”. In the series with MCF-7 (breast cancer) [3], the “combined use with Taxol, level of apoptosis” value was “summation of cytotoxic effects”. The “delay in cells leaving the rest phase” value with HCT-116 (synchronized culture, 40 µM (Fig. 10)) is 8 to 12 h. In the series on SKOV (ovarian cancer), the “antiproliferative effect (cells in G0/G1 and S+G2/M)” value is given as “caused the delay of proliferation”.
